Assay in all cases: Protocol A: diffusion on agar in Petri dishes
What all share (assay type): cell-based

The test system of one test is Escherichia coli. The protocol:
(§1) The culture medium used was a mixture of 21 g/L of Muller-Hinton broth and 10 g/L of agar in water. This mixture was stirred and then left to boil. Next, a step of autoclaving of this mixture for 30 minutes was necessary in order to sterilize it before any manipulation. This culture medium was poured, while hot, into Petri dishes and then left to cool.
(§2) 5 milligrams of RhamOC4 were dissolved in 1 mL of DMSO. Twofold serial dilution with DMSO was then performed starting with the stock solution, so as to obtain the concentrations 2.5 g·L^−1, 1.25 g·L^−1, 0.625 g·L^−1 and 0.3125 g·L^−1.
(§3) The bacterial strains used were Pseudomonas aeruginosa, Escherichia coli, Enterococcus faecium and Staphylococcus aureus, in addition to the fungal strain Candida albicans. 10^6 bacteria were collected and then transferred into a 0.9% NaCl solution. Each Petri dish, containing the Muller-Hinton medium, was inoculated with a different bacterial suspension.
(§4) After having left the bacterial suspensions to dry on the agar, 10 μL of the test solution (RhamOC4), at various concentrations, were deposited on the surface of the agar inoculated with the bacterial suspension. 10 μL of DMSO were placed in each Petri dish as negative control.
(§5) The positive controls used were discs soaked with ampicillin for Escherichia coli and Enterococcus faecium, ceftazidim discs for Pseudomonas aeruginosa and vancomycin discs for Staphylococcus aureus.
(§6) After drying, the Petri dishes were finally incubated at 37° C. in an oven for 24 hours. The antibacterial activity was evaluated by measuring the clarification zone in mm around the place of deposition of the various concentrations of the test RhamOC4 solution.

A further test concerns Enterococcus faecium. As to the method:
as §1, §2, §3, §4, §5, §6

Another test deals with Pseudomonas aeruginosa. The protocol:
as §1, §2, §3, §4, §5, §6

Another test relates to Staphylococcus aureus. As to the method:
as §1, §2, §3, §4, §5, §6

The test system of the next test is Candida albicans. As to the method:
as §1, §2, §3, §4, §6

Setting [1] is: antibiotic disc, concentration not given.

`CC1(C)S[C@@H]2[C@H](NC(=O)[C@H](N)c3ccccc3)C(=O)N2[C@H]1C(=O)O` [Ampicillin, ampicillin, reference compound]: in the test with Escherichia coli (setting [1]), the “Clarification zone, E. coli, positive control” value is reported as “(22 mm)”. Further, the “Clarification zone, E. faecium, positive control” value in the test with Enterococcus faecium (setting [1]) is “(26 mm)”.
On to `CC(C)(O/N=C(\C(=O)N[C@@H]1C(=O)N2C(C(=O)[O-])=C(C[n+]3ccccc3)CS[C@H]12)c1csc(N)n1)C(=O)O` [Ceftazidim, ceftazidim, reference compound], for which the “Clarification zone, P. aeruginosa, positive control” value in the test with Pseudomonas aeruginosa (setting [1]) is “(28 mm)”.
For `CCCCO[C@@H]1O[C@@H](C)[C@H](O)[C@@H](O)[C@H]1O` [RhamOC4, n-butyl α-L-rhamnopyranoside], the zone of inhibition at 0.3125 mg/mL was determined as 0 mm in the test on Escherichia coli (Escherichia coli, 0.3125 mg·mL^−1, 10 μL, 24 hours 37° C., read-out: Clarification zone, E. coli); 0 mm in the test on Pseudomonas aeruginosa (Pseudomonas aeruginosa, 0.3125 mg·mL^−1, 10 μL, 24 hours 37° C., read-out: Clarification zone, P. aeruginosa); 0 mm in the test on Staphylococcus aureus (Staphylococcus aureus, 0.3125 mg·mL^−1, 10 μL, 24 hours 37° C., read-out: Clarification zone, S. aureus); 0 mm in the test on Enterococcus faecium (Enterococcus faecium, 0.3125 mg·mL^−1, 10 μL, 24 hours 37° C., read-out: Clarification zone, E. faecium); 0 mm in the test on Candida albicans (Candida albicans, 0.3125 mg·mL^−1, 10 μL, 24 hours 37° C., read-out: Clarification zone, C. albicans). Further, the zone of inhibition at 0.625 mg/mL was found to be 0 mm with Escherichia coli (Escherichia coli, 0.625 mg·mL^−1, 10 μL, 24 hours 37° C., read-out: Clarification zone, E. coli); 0 mm in the test with Pseudomonas aeruginosa (Pseudomonas aeruginosa, 0.625 mg·mL^−1, 10 μL, 24 hours 37° C., read-out: Clarification zone, P. aeruginosa); 0 mm in the test with Staphylococcus aureus (Staphylococcus aureus, 0.625 mg·mL^−1, 10 μL, 24 hours 37° C., read-out: Clarification zone, S. aureus); 0 mm with Enterococcus faecium (Enterococcus faecium, 0.625 mg·mL^−1, 10 μL, 24 hours 37° C., read-out: Clarification zone, E. faecium); 0 mm in the test on Candida albicans (Candida albicans, 0.625 mg·mL^−1, 10 μL, 24 hours 37° C., read-out: Clarification zone, C. albicans). For the same compound, the zone of inhibition at 1.25 mg/mL in the test with Escherichia coli (Escherichia coli, 1.25 mg·mL^−1, 10 μL, 24 hours 37° C., read-out: Clarification zone, E. coli) amounted to 0 mm; in the test with Pseudomonas aeruginosa (Pseudomonas aeruginosa, 1.25 mg·mL^−1, 10 μL, 24 hours 37° C., read-out: Clarification zone, P. aeruginosa), 0 mm; in the test on Staphylococcus aureus (Staphylococcus aureus, 1.25 mg·mL^−1, 10 μL, 24 hours 37° C., read-out: Clarification zone, S. aureus) it was 5 mm; in the test on Enterococcus faecium (Enterococcus faecium, 1.25 mg·mL^−1, 10 μL, 24 hours 37° C., read-out: Clarification zone, E. faecium), 0 mm; in the test with Candida albicans (Candida albicans, 1.25 mg·mL^−1, 10 μL, 24 hours 37° C., read-out: Clarification zone, C. albicans), 5 mm. Moreover, the zone of inhibition at 2.5 mg/mL with Escherichia coli (Escherichia coli, 2.5 mg·mL^−1, 10 μL, 24 hours 37° C., read-out: Clarification zone, E. coli) worked out at 4 mm; in the test with Pseudomonas aeruginosa (Pseudomonas aeruginosa, 2.5 mg·mL^−1, 10 μL, 24 hours 37° C., read-out: Clarification zone, P. aeruginosa) it was 0 mm; in the test with Staphylococcus aureus (Staphylococcus aureus, 2.5 mg·mL^−1, 10 μL, 24 hours 37° C., read-out: Clarification zone, S. aureus) it was 5 mm; in the test on Enterococcus faecium (Enterococcus faecium, 2.5 mg·mL^−1, 10 μL, 24 hours 37° C., read-out: Clarification zone, E. faecium) it was 4 mm; with Candida albicans (Candida albicans, 2.5 mg·mL^−1, 10 μL, 24 hours 37° C., read-out: Clarification zone, C. albicans), 14 mm. Moreover, the zone of inhibition at 5 mg/mL with Escherichia coli (Escherichia coli, 5 mg·mL^−1, 10 μL, 24 hours 37° C., read-out: Clarification zone, E. coli) was determined as 9 mm; in the test on Pseudomonas aeruginosa (Pseudomonas aeruginosa, 5 mg·mL^−1, 10 μL, 24 hours 37° C., read-out: Clarification zone, P. aeruginosa) it was 4 mm; in the test on Staphylococcus aureus (Staphylococcus aureus, 5 mg·mL^−1, 10 μL, 24 hours 37° C., read-out: Clarification zone, S. aureus) it was 10.5 mm; in the test on Candida albicans (Candida albicans, 5 mg·mL^−1, 10 μL, 24 hours 37° C., read-out: Clarification zone, C. albicans), 18 mm. In addition, in the test on Pseudomonas aeruginosa (summary of agar diffusion), the “Inhibitory power on growth of Pseudomonas aeruginosa” value is “poor inhibitory power”. Moreover, the “Capacity to inhibit growth of Staphylococcus aureus” value in the test with Staphylococcus aureus (summary of agar diffusion) is “very good capacity to inhibit the growth”. In addition, the zone of inhibition at 5 µg/mL in the test with Enterococcus faecium (Enterococcus faecium, 5 mg·mL^−1, 10 μL, 24 hours 37° C., read-out: Clarification zone, E. faecium) turned out to be 6 mm. Also, in the test with Candida albicans (summary of agar diffusion), the “Capacity to inhibit growth of Candida albicans” value was “very good capacity to inhibit the growth”.
With `CN[C@H](CC(C)C)C(=O)N[C@H]1C(=O)N[C@@H](CC(N)=O)C(=O)N[C@H]2C(=O)N[C@H]3C(=O)N[C@H](C(=O)N[C@H](C(=O)O)c4cc(O)cc(O)c4-c4cc3ccc4O)[C@H](O)c3ccc(c(Cl)c3)Oc3cc2cc(c3O[C@@H]2O[C@H](CO)[C@@H](O)[C@H](O)[C@H]2O[C@H]2C[C@](C)(N)[C@H](O)[C@H](C)O2)Oc2ccc(cc2Cl)[C@H]1O` [Vancomycin, vancomycin, reference compound], the “Clarification zone, S. aureus, positive control” value in the test with Staphylococcus aureus (setting [1]) is given as “(19 mm)”.

Source of the values: patent US20200045962A1, “METHOD FOR PREPARING SURFACTANT COMPOSITIONS COMPRISING ALKYL LIDURONAMIDES D-GLUCURONAMIDES AND L-RHAMNOSIDES FROM ULVANS” (ÉCOLE NATIONALE SUPÉRIEURE DE CHIMIE, priority 2016, published 2020).
